Data as given in publication PMC8700061, “Fragment-Sized and Bidentate (Immuno)Proteasome Inhibitors Derived from Cysteine and Threonine Targeting Warheads” (Cells, 2021).
Like-named read-outs stand apart in the source and are kept apart here. Marks after values point to notes of the source that are not given here.

Key:
β5i subunit of human iCP [1] = target: T1, β5i subunit of human iCP (Homo sapiens, UniProt P20618+P28062); test: Inhibition of β5i activity (RA at 10 µM, IC50, IC50 shift), Suc-LLVY-AMC; assay type: biochemical; conditions: for Group efficiency (GE): ΔpIC50/ΔNheavy with compound 1 as reference; for RA (%) at 10 µM, β5i: 10 µM compound; for RA (%) at 10 µM, β5i / IC50: 30 min pre-incubation, SDS activator; for IC50: read-out: IC50 (µM), β5i
T1 construct: purchased Boston Biochem, Inc., Cambridge, MA, USA
Experimental: (§1) Residual activity measurements were performed at 10 μM final concentrations in the assay buffer (0.01% SDS, 50 mM Tris-HCl, 0.5 mM EDTA, pH 7.4). Stock solutions of the compounds were prepared in DMSO. To 50 μL of each compound in buffer, 25 μL of 0.8 nM human iCP or human cCP (both from Boston Biochem, Inc., Cambridge, MA, USA) were added. After incubation at 37 °C for 30 min, the reaction was started by adding of 25 μL of 100 μM relevant fluorogenic substrate: acetyl-Nle-Pro-Nle-Asp-AMC (Ac-nLPnLD-AMC, (Bachem, Bubendorf, Switzerland)) for β1, acetyl-Pro-Ala-Leu-7-amino-4-methylcoumarin (Ac-PAL-AMC, (Boston Biochem, Inc., Cambridge, MA, USA)) for β1i, t-butyloxycarbonyl-Leu-Arg-Arg-7-amino-4-methylcoumarin (Boc-LRR-AMC, (Bachem, Bubendorf, Switzerland)) for β2 and β2i, succinyl-Leu-Leu-Val-Tyr-7-amino-4-methylcoumarin (Suc-LLVY-AMC) (Bachem, Bubendorf, Switzerland) for β5 and β5i. Reaction progress was recorded on BioTek Synergy HT microplate reader by monitoring fluorescence at 460 nm (λex = 360 nm) for 90 min at 37 °C. The initial linear ranges were used to calculate velocity and determine residual activity. In the case of evaluation of β1, βi, β2, and β2i activities, the assay buffer was modified by replacing SDS with the proteasomal activator PA28α (Boston Biochem, Inc., Cambridge, MA, USA).
Final assay mixtures contained 0.2 nM human iCP or 0.2 nM human cCP in assay buffer (0.01% SDS (or PA28α in cases of β1, β1i subunits), 50 mM Tris-HCl, 0.5 mM EDTA, pH 7.4). Inhibitors were dissolved in DMSO and added to the black 96-well plates for at least eight different concentrations (the final concentration of DMSO was not more than 1%). […] Fluorescence was monitored at 460 nm (λex = 360 nm) for 90 min at 37 °C. The progress of the reactions was recorded and the initial linear ranges were used to calculate the velocity. IC50 values were calculated using GraphPadPrism (GraphPad Software, San Diego, CA, USA) and are means from at least three independent determinations.

β5i subunit of human iCP [2] = target: T1, β5i subunit of human iCP; parameters: method as in PMID 33894528; conditions: limited stability of compounds after 1 h in assay buffer; read-out: IC50 (µM) against the β5i subunit of human iCP; cited from earlier work
[3] = UV-Vis-based stability assay in buffer; assay type: physicochemical; conditions: after 1 h, assay buffer pH 7.4, 37 °C, 50 µM
Experimental: The aqueous stability of all compounds was determined spectrophotometrically by following the changes in the absorption spectra of the compounds. The buffer solution (50 mM Tris-HCl, 0.5 mM EDTA, pH 7.4) was pre-incubated at 37 °C. Aliquots of the compounds studied (1 mM in DMSO) were transferred to a 96-well flat-bottom UV-transparent microplate (Corning, CLS3635, Corning Inc, Corning, NY, USA) containing the buffer solution to obtain a 50 μM solution containing 5% DMSO (final volume, 300 μL). The plate was incubated without lid at 37 °C in a plate reader (Synergy H4, BioTek Instruments, Inc., Santa Clara, CA, USA) and the absorbance spectrum (244–400 nm) was acquired in sweep mode after 0, 15, 30, 60, 120, 180, and 240 min using a discontinuous kinetic procedure in Gen5 software (BioTek Instruments, Inc., Santa Clara, CA, USA). The time required to read the entire plate was 3 min. To determine the baseline, the compound solution was replaced with pure DMSO and subtracted from each reading. Compounds with an absorbance maximum of less than 0.20 AU were not evaluated using these assays due to the high experimental error. For other compounds, the relative absorbance difference between the first time point and 60 min at the most responsive wavelength was calculated. If the relative absorbance difference for the compound in the buffer was below 0.1, between 0.1–0.2, and above 0.2, the compound was classified as stable, intermediate, and unstable, respectively.

[4] = HPLC-based stability assay in PBS; assay type: physicochemical; conditions: PBS pH 7.4
Experimental: (§2) GSH reactivity assay was performed as described by Petri et al.; 500 μM solution of compound (PBS buffer pH 7.4, 10% MeCN, 250 μL) with 200 μM solution of indoprofen as internal standard were added to 10 mM GSH solution (dissolved in PBS buffer, 250 μL) in a 1:1 ratio. The final concentration was 250 μM compound, 100 μM indoprofen, 5 mM GSH and 5% MeCN (500 μL). The final mixture was analyzed by HPLC after 0, 1, 2, 4, 8, 12, 24, 48, and 72 h. The degradation kinetics were also studied using the method described in [24], except that pure PBS buffer was used instead of GSH solution. In this experiment, the final concentration of the mixture was 250 μM fragment, 100 μM indoprofen and 5% MeCN. The area under the curve (AUC) values were determined by integrating the HPLC spectra and then corrected with the internal standard.

GSH = test: HPLC-based GSH reactivity assay; assay type: physicochemical; conditions: 5 mM glutathione (GSH) in PBS buffer; 250 µM compound, 5 mM GSH, PBS pH 7.4; read-out: Reactivity with GSH (HPLC-based assay), t1/2
Experimental: as §2, with “The final concentration was 250 μM compound, 100 μM indoprofen, 5 mM GSH and 5% MeCN (500 μL).” left out, “In this experiment, the final concentration of the mixture was 250 μM fragment, 100 μM indoprofen and 5% MeCN.” left out

[5] = HPLC-based GSH reactivity assay; assay type: physicochemical; conditions: 250 µM compound, 5 mM GSH, PBS pH 7.4
Experimental: as §2, with “The final concentration was 250 μM compound, 100 μM indoprofen, 5 mM GSH and 5% MeCN (500 μL).” left out, “In this experiment, the final concentration of the mixture was 250 μM fragment, 100 μM indoprofen and 5% MeCN.” left out

human iCP (β5i) = target: T2, human iCP (β5i) (Homo sapiens, UniProt P20618+P28062); test: Screening of heterocyclic electrophilic compounds at 500 µM (β5i); assay type: biochemical; conditions: 30 min incubation
T2 construct: purchased Boston Biochem, Inc., Cambridge, MA, USA
Experimental: Screening of heterocyclic electrophilic compounds was performed at concentration of 500 µM in assay buffer (0.01% SDS, 50 mM Tris-HCl, 0.5 mM EDTA, pH 7.4). To 50 µL of each compound in buffer, 25 µL of 0.8 nM human iCP (Boston Biochem, Inc., Cambridge, MA, USA) was added. After 30 min incubation at 37 °C, the reaction was started by adding of 25 µL of […] Suc-LLVY-AMC (Bachem, Bubendorf, Switzerland), final concentration 25 µM). The reaction progress was recorded on BioTek Synergy HT microplate reader by monitoring fluorescence at 460 nm (λex = 360 nm) for 90 min at 37 °C. The initial linear ranges were used to calculate the velocity and determine the residual activity.

β5 subunit of human cCP [6] = target: T3, β5 subunit of human cCP (Homo sapiens, UniProt P20618+P28074); test: Inhibition of β5 activity (RA, IC50), Suc-LLVY-AMC; assay type: biochemical
T3 construct: purchased Boston Biochem, Inc., Cambridge, MA, USA

β5 subunit of human cCP [7] = target: T3, β5 subunit of human cCP; test: Inhibition of β5 activity (RA, IC50), Suc-LLVY-AMC; assay type: biochemical; conditions: 30 min pre-incubation, SDS
Experimental: as §1
(§3) Final assay mixtures contained 0.2 nM human iCP or 0.2 nM human cCP in assay buffer (0.01% SDS (or PA28α in cases of β1, β1i subunits), 50 mM Tris-HCl, 0.5 mM EDTA, pH 7.4). Inhibitors were dissolved in DMSO and added to the black 96-well plates for at least eight different concentrations (the final concentration of DMSO was not more than 1%). After 30 min of incubation at 37 °C, the reaction was started by adding the substrate Suc-LLVY-AMC (for β5 and β5i) or Ac-nLPnLD-AMC (for β1) or Ac-PAL-AMC (for β1i). Fluorescence was monitored at 460 nm (λex = 360 nm) for 90 min at 37 °C. The progress of the reactions was recorded and the initial linear ranges were used to calculate the velocity. IC50 values were calculated using GraphPadPrism (GraphPad Software, San Diego, CA, USA) and are means from at least three independent determinations.

β1i subunit of human iCP = target: T4, β1i subunit of human iCP (Homo sapiens, UniProt P28065+P40306); test: Inhibition of β1i activity (RA, IC50), Ac-PAL-AMC; assay type: biochemical; conditions: PA28α, 30 min pre-incubation
T4 construct: purchased Boston Biochem, Inc., Cambridge, MA, USA
Experimental: as §1, §3

β1 subunit of human cCP = target: T5, β1 subunit of human cCP (Homo sapiens, UniProt P28072+Q99436); test: Inhibition of β1 activity (RA, IC50), Ac-nLPnLD-AMC; assay type: biochemical; conditions: PA28α
T5 construct: purchased Boston Biochem, Inc., Cambridge, MA, USA
Experimental: as §1, §3

β2i subunit of human iCP = target: T6, β2i subunit of human iCP (Homo sapiens, UniProt P40306+P49720); test: Residual β2i activity, Boc-LRR-AMC; assay type: biochemical; conditions: 10 µM, PA28α
T6 construct: purchased Boston Biochem, Inc., Cambridge, MA, USA
Experimental: as §1

β2 subunit of human cCP = target: T7, β2 subunit of human cCP (Homo sapiens, UniProt P49720+Q99436); test: Residual β2 activity, Boc-LRR-AMC; assay type: biochemical; conditions: 10 µM, PA28α
T7 construct: purchased Boston Biochem, Inc., Cambridge, MA, USA
Experimental: as §1

N#Cc1nc2cc(Cl)ccc2o1 [Compound 2]
Group efficiency (GE) (β5i subunit of human iCP [1]): 0.09
IC50 (β5i subunit of human iCP [2]): 67 ± 11 µM

N#Cc1nc2ccc(Cl)cc2o1 [Compound 3]
Group efficiency (GE) (β5i subunit of human iCP [1]): 0.96
IC50 (β5i subunit of human iCP [2]): 9.1 ± 4.5 µM

COc1cccc2nc(C#N)oc12 [Compound 9]
RA (%) at 10 µM, β5i (β5i subunit of human iCP [1]): 20 ± 6% ^f
RA (%) at 10 µM, β5i (β5i subunit of human iCP [1]; listed as 7-OMe): 20%
Group efficiency (GE) (β5i subunit of human iCP [1]): 0.61
Stability in Buffer (UV-Vis-based assay) [3]: stable ^c,d (relative absorbance difference for the compound in the buffer was below 0.1)
Stability in Buffer (HPLC-based assay) [4]: stable ^c,d
half-life at 250 µM (GSH): < 3 min

N#Cc1nc2ccccc2o1 [Compound 1, benzoxazole-2-carbonitrile]
IC50 (β5i subunit of human iCP [2]): 83 ± 6 µM

N#Cc1nc2ccc(N)cc2o1 [Compound 22]
Stability in Buffer (UV-Vis-based assay) [3]: stable ^c,d (relative absorbance difference for the compound in the buffer was below 0.1)
Stability in Buffer (HPLC-based assay) [4]: stable ^c,d
Reactivity with GSH (HPLC-based assay), t1/2 [5]: < 3 min

C=Cc1nccs1 [XXI, 2-vinylthiazole]
RA at 500 µM [%] (β5i) (human iCP (β5i)): 5 ± 3%

CC(C)C[C@H](NC(=O)[C@H](CCc1ccccc1)NC(=O)CN1CCOCC1)C(=O)N[C@@H](Cc1ccccc1)C(=O)N[C@@H](CC(C)C)C(=O)[C@@]1(C)CO1 [carfilzomib]
β5 RA at 10 nM (control) (β5 subunit of human cCP [6]): 25 ± 1%

N#Cc1nc2cccc(Cl)c2o1 [Compound 4]
Group efficiency (GE) (β5i subunit of human iCP [1]): 0.92
IC50 (β5i subunit of human iCP [2]): 10 ± 4.6 µM

Cc1ccc2nc(C#N)oc2c1 [Compound 5]
RA (%) at 10 µM, β5i (β5i subunit of human iCP [1]): 81 ± 4%
Stability in Buffer (HPLC-based assay) [4]: low absorbance ^c/stable ^d
Reactivity with GSH (HPLC-based assay), t1/2 [5]: < 3 min

COc1ccc2nc(C#N)oc2c1 [Compound 8]
IC50 (β5i subunit of human iCP [1]): 11 ± 6 µM
Group efficiency (GE) (β5i subunit of human iCP [1]): 0.44
β5 (RA [%]) at 10 µM (β5 subunit of human cCP [7]; 10 µM): 74% ^b
IC50 (β1i subunit of human iCP): 69 µM
β1 (RA [%]) (β1 subunit of human cCP; 10 µM, Table 3): NA (NA, Not active (RA above 90%))
β2i (RA [%]) (β2i subunit of human iCP; Table 3): NA (NA, Not active (RA above 90%))
β2 (RA [%]) (β2 subunit of human cCP; Table 3): NA (NA, Not active (RA above 90%))
Stability in Buffer (UV-Vis-based assay) [3]: intermediate (between 0.1–0.2)
Stability in Buffer (HPLC-based assay) [4]: stable

COc1ccc2oc(C#N)nc2c1 [Compound 7]
RA (%) at 10 µM, β5i (β5i subunit of human iCP [1]): 84 ± 11%
RA (%) at 10 µM, β5i (β5i subunit of human iCP [1]; listed as 5-OMe): 84%
Group efficiency (GE) (β5i subunit of human iCP [1]): 0.01
Stability in Buffer (UV-Vis-based assay) [3]: stable ^c,d (relative absorbance difference for the compound in the buffer was below 0.1)
Stability in Buffer (HPLC-based assay) [4]: stable ^c,d
half-life at 250 µM (GSH): < 3 min

CC(C)C[C@H](NC(=O)CCCCn1c(C#N)nc2ccccc21)B(O)O [Compound 36]
IC50 (β5i subunit of human iCP [1]): 59 ± 7 µM
IC50 (β5 subunit of human cCP [7]): 6.4 ± 2.6 µM
IC50 (β1i subunit of human iCP): 4.9 ± 0.4 µM
IC50 (β1 subunit of human cCP; 30 min pre-incubation): 23 ± 6 µM
β2i (RA [%]) (β2i subunit of human iCP; Table 6): NA (NA, Not active (RA above 95%))
β2 (RA [%]) (β2 subunit of human cCP; Table 6): NA (NA, Not active (RA above 95%))
Stability in Buffer (UV-Vis-based assay) [3]: stable ^b (relative absorbance difference for the compound in the buffer was below 0.1)
